Measurements taken from US3980794A, “Method for promoting growth of poultry with 3-(5-nitro-2-imidazolyl)pyrazoles” (Eli Lilly and Company, priority 1975, dated 1976).
In brackets after ≈: the same amount, converted by molar mass. Where two headings read alike, the source gives them in different places.

Columns and labels:
Assay type in all cases: cell-based
[1] = test system: Bacteroides fragilis sp. thetaiotaomicron 1438; test: Susceptibility of anaerobic bacteria, agar dilution; conditions: 24 h, read-out: 24 Hr. Minimum Inhibitory Concentration
[2] = test system: Fusobacterium necrophorum 13859; test: as above; conditions: read-out: 24 Hr. Minimum Inhibitory Concentration
[3] = test system: Eubacterium aerofaciens 1235; test: as above; conditions: read-out: 24 Hr. Minimum Inhibitory Concentration
[4] = test system: Bacteroides fragilis sp. fragilis 1877; test: as above; conditions: 24 h, read-out: 24 Hr. Minimum Inhibitory Concentration
[5] = test system: Clostridium perfringens 81; test: microbe, parasite or virus in culture; conditions: Clostridium perfringens, 81, 24 h, read-out: 24 Hr. Minimum Inhibitory Concentration
[6] = test system: Bacteroides fragilis sp. vulgatus 1211; test: Susceptibility of anaerobic bacteria, agar dilution; conditions: 24 h, read-out: 24 Hr. Minimum Inhibitory Concentration
[7] = test system: Fusobacterium symbiosum 1470; test: as above; conditions: read-out: 24 Hr. Minimum Inhibitory Concentration
[8] = test system: Propionibacterium acnes 44; test: as above; conditions: Cutibacterium acnes, 24 h; Propionibacterium acnes 44; read-out: 24 Hr. Minimum Inhibitory Concentration
[9] = test system: Veillonella alcalescens 1; test: as above; conditions: read-out: 24 Hr. Minimum Inhibitory Concentration
[10] = test system: Clostridium innocuum 1373; test: as above; conditions: read-out: 24 Hr. Minimum Inhibitory Concentration
Actinomyces bovis 13684 = test: as above; conditions: read-out: 24 Hr. Minimum Inhibitory Concentration
[11] = test system: Propionibacterium acnes 79; test: as above; conditions: read-out: 24 Hr. Minimum Inhibitory Concentration
[12] = test system: Peptostreptococcus intermedius 1264; test: as above; conditions: 24 h; Peptostreptococcus intermedius 1264; read-out: 24 Hr. Minimum Inhibitory Concentration
[13] = test system: Bacteroides fragilis sp. vulgatus 1563; test: as above; conditions: 24 h, read-out: 24 Hr. Minimum Inhibitory Concentration
[14] = test system: Clostridium septicum 1128; test: as above; conditions: 24 h, read-out: 24 Hr. Minimum Inhibitory Concentration
Procedure: (§1) The susceptibility of anaerobic bacteria, both gram positive and gram negative, to a representative number of the novel compounds of this application was determined using the agar dilution method. The bacteria used were isolated from patients hospitalized at the Indiana University Medical Center. The isolates were identified in the anaerobe laboratory of the Medical Center by the criteria established by Dowell et al., Laboratory Methods in Anaerobic Bacteriology. Public Health Serv. Publ. No. 1803 (1968) [Center for Disease Control, Atlanta, Ga.]; and by Smith et al., The Pathogenic Anaerobic Bacteria, pages 96-136 (1968) [Charles C. Thomas, Publisher, Springfield, Ill.]. All the organisms were maintained in chopped meat glucose medium (Scott Labs) at room temperature.
(§2) The method used for the agar dilution tests was based on the studies of Sutter et al., Antimicrob. Ag. Chemother. 3, 188-193 (1973). The strains of anaerobic bacteria were grown in 16 × 120 mm. tubes for 16 to 18 hours in Thioglycolate medium without indicator--135C (Becton, Dickinson and Co.), to which was added 5 mcg. of hemin per milliliter prior to autoclaving, plus 1 mg. of sodium bicarbonate and 0.1 mcg. of filter-sterilized menadione per milliliter after autoclaving. The growth tubes for the bacteria Veillonella alcalescens were additionally supplemented with 5 mg. of sodium lactate per milliliter. The strains were adjusted to the turbidity of the No. 1 McFarland standard in Thioglycolate medium without indicator--135C containing an additional 0.13 percent Bacto-agar (Difco). Each strain was then applied to the surface of the petri plate (100 mm. × 15 mm.) by means of a replicator.
(§3) For the agar dilution studies, two-fold dilutions of the test compounds were prepared in deionized water to which was then added laked sheep blood and filter-sterilized menadione so the concentrations after the agar dilution were 5 percent and 10 mcg./ml. respectively. An equal volume of double strength Brucella agar (Becton, Dickinson and Co.) was mixed with each dilution in a water bath held at 50°C. and then poured onto the petri plates.
(§4) All of the procedures were done inside a plastic glove box, except for the incubation of the growth tubes and the pouring of the plates. After the plates hardened, they were put inside the glove box for a minimum of two hours before they were inoculated. Generally, the glove box procedures of Aranki et al., Applied Microbiology 17, 568-576 (1969), were followed, but the following modifications were used. Dry materials were introduced into the glove box by evacuating the lock to 28 inches of mercury and filling once with nitrogen gas, followed by evacuating in the same manner and filling with an 80 percent nitrogen plus 10 percent CO2 plus 10 percent hydrogen gas mixture. Liquid media and agar plates were introduced into the glove box by evacuating the lock to 10 inches of mercury and filling with gas four times. The nitrogen gas was used to fill the lock for the first two cycles of evacuation, with the gas mixture described above used for the final two fillings.
(§5) All the plates were incubated at 37°C. in Gas Pak jars (Becton, Dickinson and Co.) containing palladium-coated alumina catalysts (reactivated after each use). The results of the agar dilution tests were read after about 24 hours of incubation. The minimum inhibitory concentration (MIC) was recorded as the lowest concentration of test compound at which there was no growth.
(§6) The results of these in vitro tests are recorded in Charts 11 and 12 which follow. The test compounds are identified in the same manner as in the previous experiments. The antibiotics cephalothin and erythromycin were also run simultaneously with the novel compounds of this application, for comparison purposes, and the results are included in Charts 11 and 12 below.

[15] = test system: Clostridium septicum bovine; test: as above; conditions: 24 h, read-out: 24 Hr. Minimum Inhibitory Concentration
Procedure: as §1, §2, §3, §4, §5, §6

[16] = test system: Peptococcus anaerobius 1428; test: as above; conditions: 24 h, read-out: 24 Hr. Minimum Inhibitory Concentration
[17] = test system: Bacteroides fragilis sp. fragilis 1936B; test: as above; conditions: 24 h, read-out: 24 Hr. Minimum Inhibitory Concentration
Clostridium ramosum 1313 = test: as above; conditions: read-out: 24 Hr. Minimum Inhibitory Concentration
[18] = Fusobacterium necrophorum, 13859, 24 h
[19] = Collinsella aerofaciens, 1235, 24 h
[20] = [Clostridium] innocuum, 1373, 24 h
[21] = Thomasclavelia ramosa, 24 h, Clostridium ramosum 1313
[22] = Thomasclavelia ramosa, 1313, 24 h
[23] = Bacteroides fragilis sp. vulgatus 1563
[24] = Bacteroides fragilis sp. thetaiotaomicron 1438
[25] = 24 h, Fusobacterium necrophorum 13859
[26] = Collinsella aerofaciens, 24 h, Eubacterium aerofaciens 1235
[27] = Bacteroides fragilis sp. fragilis 1877
[28] = Bacteroides fragilis sp. vulgatus 1211
[29] = 24 h, Fusobacterium symbiosum 1470
[30] = Veillonella parvula, 24 h, Veillonella alcalescens 1
[31] = 24 h, Clostridium innocuum 1373
[32] = Cutibacterium acnes, 24 h, Propionibacterium acnes 79
[33] = Bacteroides fragilis sp. fragilis 1936B

SMILES	MIC ([1]; Bacteroides fragilis)	MIC [2, 18]	MIC [3, 19]	MIC ([4]; Bacteroides fragilis)	MIC [5]	MIC ([6]; Bacteroides fragilis)	MIC ([7]; Fusobacterium, 1470, 24 h)	MIC [8]	MIC ([9]; Veillonella parvula, 1, 24 h)	MIC [10, 20]	MIC (Actinomyces bovis 13684; Actinomyces bovis, 13684, 24 h)	MIC ([11]; Cutibacterium acnes, 79, 24 h)	MIC [12]	MIC ([13]; Bacteroides fragilis)	MIC [14]	MIC [15]	MIC [16]	MIC ([17]; Bacteroides fragilis)	MIC (Clostridium ramosum 1313; [21])	MIC [13, 23]	also measured
Cn1nc(-c2ncc([N+](=O)[O-])n2C)cc1N [Compound 3, 5-Amino-1-methyl-3-(1-methyl-5-nitro-2-imidazolyl)pyrazole]	< 0.125 µg/mL	< 0.125 µg/mL	< 0.125 µg/mL	< 0.125 µg/mL	< 0.125 µg/mL	< 0.125 µg/mL	< 0.125 µg/mL	0.5 µg/mL (≈ 2.25 µM)	< 0.125 µg/mL	< 0.125 µg/mL	< 0.125 µg/mL	< 0.125 µg/mL	16 µg/mL (≈ 72 µM)	< 0.125 µg/mL	< 0.125 µg/mL	< 0.125 µg/mL	< 0.125 µg/mL	< 0.125 µg/mL	4 µg/mL (≈ 18 µM)		
CCOC=Nc1c(C#N)c(-c2ncc([N+](=O)[O-])n2C)nn1C [Compound 4, Ethyl N-[4-cyano-1-methyl-3-(1-methyl-5-nitro-2-imidazolyl)-pyrazol-5-yl]formimidate]	< 0.125 µg/mL	< 0.125 µg/mL	< 0.125 µg/mL	< 0.125 µg/mL	< 0.125 µg/mL	< 0.125 µg/mL	< 0.125 µg/mL	> 32 µg/mL	< 0.125 µg/mL	< 0.125 µg/mL	< 0.125 µg/mL	< 0.125 µg/mL	16 µg/mL (≈ 52.8 µM)	< 0.125 µg/mL	< 0.125 µg/mL	< 0.125 µg/mL	< 0.125 µg/mL	< 0.125 µg/mL			MIC (Clostridium ramosum 1313; [22]): < 0.125 µg/mL
CN(C)C=Nc1c(C#N)c(-c2ncc([N+](=O)[O-])n2C)nn1C [Compound 9, 5-[[(Dimethylamino)methylene]amino]-1-methyl-3-(1-methyl-5-nitro-2-imidazolyl)pyrazole-4-carbonitrile]	< 0.125 µg/mL	< 0.125 µg/mL	< 0.125 µg/mL	< 0.125 µg/mL	< 0.125 µg/mL	< 0.125 µg/mL	< 0.125 µg/mL	> 32 µg/mL	< 0.125 µg/mL	< 0.125 µg/mL	< 0.125 µg/mL	< 0.125 µg/mL	> 32 µg/mL		< 0.125 µg/mL	< 0.125 µg/mL	< 0.125 µg/mL	< 0.125 µg/mL		0.25 µg/mL (≈ 0.827 µM)	MIC (Clostridium ramosum 1313; [22]): < 0.125 µg/mL
Cn1nc(-c2ncc([N+](=O)[O-])n2C)c(C(=O)O)c1N [Compound 10A, 5-amino-1-methyl-3-(1-methyl-5-nitro-2-imidazolyl)pyrazole-4-carboxylic acid]					0.5 µg/mL (≈ 1.88 µM)			> 32 µg/mL					16 µg/mL (≈ 60.1 µM)		1 µg/mL (≈ 3.76 µM)	1 µg/mL (≈ 3.76 µM)			4 µg/mL (≈ 15 µM)	0.25 µg/mL (≈ 0.939 µM)	MIC [1, 24]: 0.25 µg/mL (≈ 0.939 µM); MIC [2, 25]: < 0.125 µg/mL; MIC [3, 26]: < 0.5 µg/mL; MIC [4, 27]: 0.5 µg/mL (≈ 1.88 µM); MIC [6, 28]: 0.25 µg/mL (≈ 0.939 µM); MIC [7, 29]: < 0.125 µg/mL; MIC [9, 30]: < 0.125 µg/mL; MIC [10, 31]: 0.5 µg/mL (≈ 1.88 µM); MIC (Actinomyces bovis 13684; 24 h, Actinomyces bovis 13684): 4 µg/mL (≈ 15 µM); MIC [11, 32]: 0.5 µg/mL (≈ 1.88 µM); MIC ([16]; Peptococcus anaerobius 1428): 8 µg/mL (≈ 30.1 µM); MIC [17, 33]: 8 µg/mL (≈ 30.1 µM)
CCNc1cc(-c2ncc([N+](=O)[O-])n2C)nn1C [Compound 11A, 5-(ethylamino)-1-methyl-3-(1-methyl-5-nitro-2-imidazolyl)pyrazole]					0.03 µg/mL (≈ 0.12 µM)			8 µg/mL (≈ 32 µM)					8 µg/mL (≈ 32 µM)		0.06 µg/mL (≈ 0.24 µM)	0.06 µg/mL (≈ 0.24 µM)			0.5 µg/mL (≈ 2 µM)	< 0.03 µg/mL	MIC [1, 24]: 0.06 µg/mL (≈ 0.24 µM); MIC [2, 25]: < 0.03 µg/mL; MIC [3, 26]: < 0.03 µg/mL; MIC [4, 27]: 0.06 µg/mL (≈ 0.24 µM); MIC [6, 28]: < 0.03 µg/mL; MIC [7, 29]: < 0.03 µg/mL; MIC [9, 30]: 1 µg/mL (≈ 4 µM); MIC [10, 31]: 0.125 µg/mL (≈ 0.499 µM); MIC (Actinomyces bovis 13684; 24 h, Actinomyces bovis 13684): 2 µg/mL (≈ 7.99 µM); MIC [11, 32]: < 0.03 µg/mL; MIC ([16]; Peptococcus anaerobius 1428): 1 µg/mL (≈ 4 µM); MIC [17, 33]: 2 µg/mL (≈ 7.99 µM)
